Data: patent US11986471B2, “Compounds and methods of use” (Tango Therapeutics, Inc., priority 2018, dated 2024)

Key:
HAP1 MTAP-deleted = test: SDMA in-cell western assay, HAP1 MTAP-deleted cell line; assay type: cell-based; conditions: for IC50: Homo sapiens, HAP1 MTAP-deleted cell line; for MTAP Intact/Deleted Ratio: IC50 ratio HAP1 MTAP-intact / HAP1 MTAP-deleted
Method in brief: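 Symmetric dimethylarginine (SDMA) levels were measured by in-cell western in MTAP-null HAP1 cells, one half of an MTAP-isogenic pair whose partner line expresses endogenous MTAP. Compound potency is reported as IC50.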

HAP1 MTAP-intact = test: SDMA in-cell western assay, HAP1 MTAP-intact cell line; assay type: cell-based; conditions: Homo sapiens
Method in brief: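 Symmetric dimethylarginine (SDMA) levels were measured by in-cell western in an isogenic HAP1 pair, one expressing endogenous MTAP and one MTAP-null, and IC50 values were derived for each line. Compounds whose IC50 ratio between the lines is 3-fold or more are classed as MTAP-selective.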

PRMT5 [1] = target: T1, PRMT5 (Homo sapiens, UniProt O14744); test: PRMT5 IC50 assay in the presence of MTA as cofactor; assay type: biochemical; conditions: for IC50: PRMT5, MTA as cofactor; for SAM/MTA Ratio: ratio between the Ki in the presence of SAM and the Ki in the presence of MTA
T1 construct: purchased Viva (custom protein)
Method in brief: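 Ki conversion: SAM arm, Ki=IC50/1.5; MTA arm, Ki=IC50/13.5. No-cofactor arm reported as IC50 only. Selectivity expressed as Ki(SAM)/Ki(MTA).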

PRMT5 [2] = target: T1, PRMT5; test: PRMT5 IC50 assay with no cofactor; assay type: biochemical
Method in brief: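 Cofactor-free, SAM and MTA formats; IC50 μM; Ki = IC50/1.5 for SAM, IC50/13.5 for MTA.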

PRMT5 [3] = target: T1, PRMT5; test: PRMT5 IC50 assay in the presence of SAM as cofactor; assay type: biochemical
Method in brief: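 IC50 against PRMT5 determined with SAM as cofactor, with no cofactor, and with MTA as cofactor. Ki derived as IC50/1.5 for the SAM assay and IC50/13.5 for the MTA assay; SAM Ki to MTA Ki ratio also reported.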

T1 sequence (O14744 whole entry): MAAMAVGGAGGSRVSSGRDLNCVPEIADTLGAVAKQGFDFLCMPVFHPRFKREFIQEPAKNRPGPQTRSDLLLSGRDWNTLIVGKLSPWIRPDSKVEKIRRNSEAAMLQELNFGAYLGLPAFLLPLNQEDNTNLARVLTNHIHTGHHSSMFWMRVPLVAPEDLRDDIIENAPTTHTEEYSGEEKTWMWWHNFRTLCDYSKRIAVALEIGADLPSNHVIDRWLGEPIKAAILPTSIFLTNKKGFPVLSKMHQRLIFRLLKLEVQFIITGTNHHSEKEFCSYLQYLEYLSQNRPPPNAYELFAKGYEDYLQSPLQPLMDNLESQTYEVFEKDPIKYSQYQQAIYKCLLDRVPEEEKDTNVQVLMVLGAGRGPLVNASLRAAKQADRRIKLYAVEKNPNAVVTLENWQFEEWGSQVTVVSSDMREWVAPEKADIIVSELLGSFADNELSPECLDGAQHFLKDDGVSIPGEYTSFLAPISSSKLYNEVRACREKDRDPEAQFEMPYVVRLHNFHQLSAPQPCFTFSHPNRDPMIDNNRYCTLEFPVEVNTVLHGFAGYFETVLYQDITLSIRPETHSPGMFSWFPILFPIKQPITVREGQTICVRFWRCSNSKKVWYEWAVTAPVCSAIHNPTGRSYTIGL
T1 sequence (Q9BQA1 whole entry partner): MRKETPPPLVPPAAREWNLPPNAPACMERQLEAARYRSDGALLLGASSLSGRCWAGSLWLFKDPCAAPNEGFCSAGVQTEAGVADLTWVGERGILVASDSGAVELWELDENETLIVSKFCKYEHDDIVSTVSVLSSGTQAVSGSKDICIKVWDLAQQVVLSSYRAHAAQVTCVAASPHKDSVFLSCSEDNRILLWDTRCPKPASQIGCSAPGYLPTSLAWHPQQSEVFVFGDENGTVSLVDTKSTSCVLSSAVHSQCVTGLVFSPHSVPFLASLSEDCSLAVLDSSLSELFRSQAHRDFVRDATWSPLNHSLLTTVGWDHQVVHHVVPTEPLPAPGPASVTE

Compound	IC50 (HAP1 MTAP-deleted)	MTAP Intact/Deleted Ratio (HAP1 MTAP-deleted)	IC50 (HAP1 MTAP-intact)	IC50 (PRMT5 [1])	SAM/MTA Ratio (PRMT5 [1])	IC50 (PRMT5 [2])	IC50 (PRMT5 [3])
Cc1c(OCc2cnco2)ccc2c1CCN(C[C@@H](O)CNC(=O)c1cc(N[C@H]3CC[C@H](C(=O)N4CCCCC4)CC3)ncn1)C2 [Compound 589, N-[(2S)-2-hydroxy-3-{5-methyl-6-[(1,3-oxazol-5-yl)methoxy]-1,2,3,4-tetrahydroisoquinolin-2-yl}propyl]-6-{((1r,4r)-4-(piperidine-1-carbonyl)cyclohexyl]amino}pyrimidine-4-carboxamide]	< 1 µM	A* (an IC50 ratio greater than or equal to 10 fold between the IC50 in the HAP1 MTAP-intact cell line and the HAP1 MTAP-deleted cell line)	≥ 10 µM	0.05 to 0.5 µM	A (a Ki ratio greater than or equal to 10 fold between the Ki in the presence of SAM and the Ki in the presence of MTA)	0.5 to 5 µM	0.05 to 0.5 µM
CC(=O)N1CCC(Nc2cc(C(=O)NC[C@H](O)CN3CCc4c(ccc(OCc5ocnc5C)c4C)C3)cc(N3CCN(C(C)=O)CC3)n2)CC1 [Compound 590, 2-(4-acetylpiperazin-1-yl)-6-[(1-acetylpiperidin-4-yl)amino]-N-[(2S)-2-hydroxy-3-{5-methyl-6-[(4-methyl-1,3-oxazol-5-yl)methoxy]-1,2,3,4-tetrahydroisoquinolin-2-yl}propyl]pyridine-4-carboxamide]	1 to 10 µM	C* (an IC50 ratio of less than 3 fold between the IC50 in the HAP1 MTAP-intact cell line and the HAP1 MTAP-deleted cell line)	≥ 10 µM	0.05 to 0.5 µM	A (a Ki ratio greater than or equal to 10 fold between the Ki in the presence of SAM and the Ki in the presence of MTA)	0.5 to 5 µM	0.05 to 0.5 µM
COCCN(C)c1cc(C(=O)NC[C@H](O)CN2CCc3c(ccc(OCc4ocnc4C)c3C)C2)cc(NC2CCN(C(C)=O)CC2)n1 [Compound 592]	< 1 µM	A* (an IC50 ratio greater than or equal to 10 fold between the IC50 in the HAP1 MTAP-intact cell line and the HAP1 MTAP-deleted cell line)	≥ 10 µM	0.05 to 0.5 µM	A (a Ki ratio greater than or equal to 10 fold between the Ki in the presence of SAM and the Ki in the presence of MTA)	0.5 to 5 µM	0.05 to 0.5 µM
CC(=O)N1CCC(Nc2cc(C(=O)NC[C@H](O)CN3CCc4c(ccc(OCc5ocnc5C)c4C)C3)cc(N3CCN(C)CC3)n2)CC1 [Compound 593]	1 to 10 µM	B* (an IC50 ratio greater than or equal to 3 fold but lower than 10 fold between the IC50 in the HAP1 MTAP-intact cell line and the HAP1 MTAP-deleted cell line)	≥ 10 µM	0.05 to 0.5 µM	A (a Ki ratio greater than or equal to 10 fold between the Ki in the presence of SAM and the Ki in the presence of MTA)	0.5 to 5 µM	0.05 to 0.5 µM
CC(=O)N1CCC(Nc2cc(C(=O)NC[C@H](O)CN3CCc4cc(OCc5ocnc5C)ccc4C3)cc(N3CCN(C(C)=O)CC3)n2)CC1 [Compound 594, 2-(4-acetylpiperazin-1-yl)-6-[(1-acetylpiperidin-4-yl)amino]-N-[(2S)-2-hydroxy-3-{6-[(4-methyl-1,3-oxazol-5-yl)methoxy]-1,2,3,4-tetrahydroisoquinolin-2-yl}propyl]pyridine-4-carboxamide]	1 to 10 µM	C* (an IC50 ratio of less than 3 fold between the IC50 in the HAP1 MTAP-intact cell line and the HAP1 MTAP-deleted cell line)	≥ 10 µM	0.05 to 0.5 µM	A (a Ki ratio greater than or equal to 10 fold between the Ki in the presence of SAM and the Ki in the presence of MTA)	0.5 to 5 µM	0.05 to 0.5 µM
CC(=O)N1CCC(Nc2cc(C(=O)NC[C@H](O)CN3CCc4c(ccc(OCc5ocnc5C)c4C)C3)cc(N3CCCCC3)n2)CC1 [Compound 595]	< 1 µM	A* (an IC50 ratio greater than or equal to 10 fold between the IC50 in the HAP1 MTAP-intact cell line and the HAP1 MTAP-deleted cell line)	1 to 10 µM	< 0.05 µM	A (a Ki ratio greater than or equal to 10 fold between the Ki in the presence of SAM and the Ki in the presence of MTA)	0.5 to 5 µM	0.05 to 0.5 µM
COc1cnc(NC2CCN(C(C)=O)CC2)cc1C(=O)NC[C@H](O)CN1CCc2cc(OCc3ocnc3C)ccc2C1 [Compound 597, (S)-2-((1-acetylpiperidin-4-yl)amino)-N-(2-hydroxy-3-(6-((4-methyloxazol-5-yl)methoxy)-3,4-dihydroisoquinolin-2(1H)-yl)propyl)-5-methoxyisonicotinamide]	< 1 µM	B* (an IC50 ratio greater than or equal to 3 fold but lower than 10 fold between the IC50 in the HAP1 MTAP-intact cell line and the HAP1 MTAP-deleted cell line)	1 to 10 µM	< 0.05 µM	A (a Ki ratio greater than or equal to 10 fold between the Ki in the presence of SAM and the Ki in the presence of MTA)	0.05 to 0.5 µM	0.05 to 0.5 µM
Cc1ncoc1COc1ccc2c(c1)CCN(C[C@@H](O)CNC(=O)c1cc(NC3CCC3)nc(N3C4CCC3COC4)c1)C2 [Compound 598]	< 1 µM	C* (an IC50 ratio of less than 3 fold between the IC50 in the HAP1 MTAP-intact cell line and the HAP1 MTAP-deleted cell line)	< 1 µM	0.05 to 0.5 µM	A (a Ki ratio greater than or equal to 10 fold between the Ki in the presence of SAM and the Ki in the presence of MTA)	0.5 to 5 µM	0.05 to 0.5 µM
COc1cc(C(=O)NC[C@H](O)CN2CCc3cc(OCc4ocnc4C)ccc3C2)cc(NC2CCN(C(C)=O)CC2)n1 [Compound 599, (S)-2-((1-acetylpiperidin-4-yl)amino)-N-(2-hydroxy-3-(6-((4-methyloxazol-5-yl)methoxy)-3,4-dihydroisoquinolin-2(1H)-yl)propyl)-6-methoxyisonicotinamide]	< 1 µM	A* (an IC50 ratio greater than or equal to 10 fold between the IC50 in the HAP1 MTAP-intact cell line and the HAP1 MTAP-deleted cell line)	1 to 10 µM	0.05 to 0.5 µM	A (a Ki ratio greater than or equal to 10 fold between the Ki in the presence of SAM and the Ki in the presence of MTA)	0.5 to 5 µM	0.05 to 0.5 µM
Cc1ncoc1COc1cc2c(cc1F)CN(C[C@@H](O)CNC(=O)c1ccnc(Nc3cccnc3)c1)CC2 [Compound 600, N-[(2S)-3-[7-fluoro-6-[(4-methyloxazol-5-yl)methoxy]-3,4-dihydro-1H-isoquinolin-2-yl]-2-hydroxy-propyl]-2-(3-pyridylamino)pyridine-4-carboxamide]	1 to 10 µM	B* (an IC50 ratio greater than or equal to 3 fold but lower than 10 fold between the IC50 in the HAP1 MTAP-intact cell line and the HAP1 MTAP-deleted cell line)	≥ 10 µM	0.05 to 0.5 µM	A (a Ki ratio greater than or equal to 10 fold between the Ki in the presence of SAM and the Ki in the presence of MTA)	≥ 5 µM	0.05 to 0.5 µM
Cc1ncoc1COc1ccc2c(c1)CCN(C[C@@H](O)CNC(=O)c1cc(Nc3cccnc3)nc(N3CCCCC3)c1)C2 [Compound 601]	< 1 µM	B* (an IC50 ratio greater than or equal to 3 fold but lower than 10 fold between the IC50 in the HAP1 MTAP-intact cell line and the HAP1 MTAP-deleted cell line)	< 1 µM	< 0.05 µM	A (a Ki ratio greater than or equal to 10 fold between the Ki in the presence of SAM and the Ki in the presence of MTA)	0.5 to 5 µM	0.05 to 0.5 µM
COc1cnc(NC2CCC2)cc1C(=O)NC[C@H](O)CN1CCc2cc(OCc3ocnc3C)ccc2C1 [Compound 602]	1 to 10 µM	C* (an IC50 ratio of less than 3 fold between the IC50 in the HAP1 MTAP-intact cell line and the HAP1 MTAP-deleted cell line)	1 to 10 µM	0.05 to 0.5 µM	A (a Ki ratio greater than or equal to 10 fold between the Ki in the presence of SAM and the Ki in the presence of MTA)	0.5 to 5 µM	0.05 to 0.5 µM
Cc1ncoc1COc1ccc2c(c1)CCN(C[C@@H](O)CNC(=O)c1cc(Nc3cccnc3)nc(N3[C@@H]4CC[C@H]3COC4)c1)C2 [Compound 603, 2-((1R,5S)-3-oxa-8-azabicyclo[3.2.1]octan-8-yl)-N—((S)-2-hydroxy-3-(6-((4-methyloxazol-5-yl)methoxy)-3,4-dihydroisoquinolin-2(1H)-yl)propyl)-6-(pyridin-3-ylamino)isonicotinamide]	< 1 µM	B* (an IC50 ratio greater than or equal to 3 fold but lower than 10 fold between the IC50 in the HAP1 MTAP-intact cell line and the HAP1 MTAP-deleted cell line)	1 to 10 µM	< 0.05 µM	A (a Ki ratio greater than or equal to 10 fold between the Ki in the presence of SAM and the Ki in the presence of MTA)	0.5 to 5 µM	0.05 to 0.5 µM
